Among the data in PubChem BioAssay (NCI) are TGI values, retold here.

Some test systems named below: 786-0 renal; BT-549 breast; SK-MEL-5 melanoma; SN12C renal; UACC-62 melanoma; MDA-MB-435; HS 578T breast; RPMI-8226 leukemia; UO-31 renal; SK-MEL-2 melanoma; KM12 colon; ACHN renal; CAKI-1 renal; SF-268 CNS; IGROV1 ovarian; MALME-3M melanoma; TK-10 renal; MDA-N; M14 melanoma; NCI-H460 lung.
What all share (assay): NCI tumour cell line growth inhibition, 48 h

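Where inhibition never reached the appropriate level, the endpoint shown equals the highest concentration tested. Otherwise, values were interpolated linearly from a five-concentration, 48-hour dose response in 96-well plates. TGI: concentration producing complete growth inhibition.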 Bounds are passed on as bounds.

On to `CCS(=O)c1c2cc(OC)ccc2nc2ccc(OC)cc12` (configuration not stated), for which the TGI was 6.42 µM in the experiment with 786-0 renal; 31.9 µM in the experiment with BT-549 breast; 30.3 µM in the experiment on SK-MEL-5 melanoma; 8.99 µM with SN12C renal; 33.4 µM in the experiment on UACC-62 melanoma; 26.4 µM in the experiment on MDA-MB-435. In addition, the TGI with HS 578T breast was 38.9 µM; in the experiment with RPMI-8226 leukemia it was 16.5 µM; with UO-31 renal, 13.1 µM; in the experiment on SK-MEL-2 melanoma it was 35.3 µM; in the experiment on KM12 colon, 41 µM; with ACHN renal, 13 µM. Besides, the TGI in the experiment on CAKI-1 renal was 9.44 µM; in the experiment with SF-268 CNS, greater than 62 µM; in the experiment on IGROV1 ovarian it was 10 µM; in the experiment with MALME-3M melanoma, 12.6 µM; in the experiment on TK-10 renal, 10.3 µM; in the experiment on MDA-N, 16.3 µM. In addition, the TGI in the experiment on M14 melanoma is 37.6 µM; with NCI-H460 lung it was greater than 68 µM.

`COC(=O)c1cc(O)c(O)c(O)c1-c1c(O)c(O)c(O)c(SC[C@H](NC(=O)OCc2ccccc2)C(=O)OCc2ccccc2)c1C(=O)OC`: the TGI was 49.6 µM in the experiment with 786-0 renal; greater than 100 µM in the experiment with BT-549 breast; 41.8 µM in the experiment on SN12C renal; 64.8 µM in the experiment with UACC-62 melanoma; 44 µM in the experiment with MDA-MB-435; greater than 100 µM in the experiment on HS 578T breast. Further, the TGI is 81.7 µM in the experiment on RPMI-8226 leukemia; 52.9 µM with SK-MEL-2 melanoma; greater than 100 µM in the experiment with KM12 colon; 61.1 µM with ACHN renal; 35.2 µM in the experiment with CAKI-1 renal; greater than 100 µM with SF-268 CNS. Moreover, the TGI in the experiment on IGROV1 ovarian is 84.2 µM; with MALME-3M melanoma it was greater than 100 µM; in the experiment with TK-10 renal, greater than 100 µM; in the experiment with MDA-N, 47.5 µM; in the experiment on M14 melanoma, 36.8 µM; with NCI-H460 lung, greater than 100 µM.

As for `COC(=O)Cc1c([C@H]2[C@H](CC(=O)OC)c3ccccc3N2S(=O)(=O)c2ccc(C)cc2)[nH]c2ccccc12`, the TGI in the experiment with 786-0 renal, with BT-549 breast, in the experiment with SK-MEL-5 melanoma, in the experiment with SN12C renal, in the experiment with UACC-62 melanoma and in the experiment with MDA-MB-435 was greater than 100 µM each time. For the same compound, the TGI in the experiment with HS 578T breast, in the experiment with RPMI-8226 leukemia, in the experiment with UO-31 renal, in the experiment on SK-MEL-2 melanoma, with KM12 colon and with ACHN renal was greater than 100 µM throughout. The TGI with CAKI-1 renal, in the experiment with SF-268 CNS, in the experiment on MALME-3M melanoma, with TK-10 renal, with MDA-N and in the experiment with M14 melanoma was greater than 100 µM each time. This compound also displayed a TGI with NCI-H460 lung greater than 100 µM.

`CN1C(=O)C(C(=O)Nc2ccccn2)C2C[C@@]1(C)Oc1ccccc12` (some centres not stated): the TGI in the experiment on 786-0 renal, in the experiment with BT-549 breast, in the experiment with SK-MEL-5 melanoma, in the experiment on UACC-62 melanoma, with MDA-MB-435 and with HS 578T breast was greater than 100 µM in each case. Besides, the TGI with RPMI-8226 leukemia, in the experiment with UO-31 renal, in the experiment with SK-MEL-2 melanoma, in the experiment on KM12 colon, with ACHN renal and with CAKI-1 renal was greater than 100 µM in each case. Also, the TGI in the experiment with SF-268 CNS, with IGROV1 ovarian, in the experiment on MALME-3M melanoma, in the experiment on TK-10 renal, with MDA-N and in the experiment with M14 melanoma was greater than 100 µM throughout. In addition, the TGI in the experiment with NCI-H460 lung is greater than 100 µM.

`CCOC(=O)CSC1NC(C(=O)OC)CC1OC` (configuration not stated): the TGI in the experiment on 786-0 renal, in the experiment with BT-549 breast, in the experiment on SK-MEL-5 melanoma, with UACC-62 melanoma, in the experiment with MDA-MB-435 and in the experiment with HS 578T breast was greater than 100 µM throughout. The TGI in the experiment on RPMI-8226 leukemia, in the experiment on UO-31 renal, in the experiment with SK-MEL-2 melanoma, with KM12 colon, in the experiment on ACHN renal and with CAKI-1 renal was greater than 100 µM throughout. The TGI with SF-268 CNS, in the experiment on IGROV1 ovarian, in the experiment on MALME-3M melanoma, in the experiment on TK-10 renal, in the experiment with MDA-N and in the experiment with M14 melanoma was greater than 100 µM throughout. This compound also returned a TGI in the experiment on NCI-H460 lung greater than 100 µM.

Take `C=CCN1C[C@H](C)N([C@H](c2ccc(C(=O)N(CC)CC)cc2)c2cccc(OC)c2)C[C@H]1C`: the TGI in the experiment on 786-0 renal is greater than 100 µM; in the experiment on BT-549 breast, greater than 100 µM; with SK-MEL-5 melanoma, 27.6 µM; in the experiment on SN12C renal, greater than 100 µM; in the experiment on UACC-62 melanoma it was greater than 100 µM; with MDA-MB-435 it was greater than 100 µM. The TGI with HS 578T breast, with RPMI-8226 leukemia, in the experiment on UO-31 renal, with SK-MEL-2 melanoma, in the experiment with KM12 colon and in the experiment with ACHN renal was greater than 100 µM throughout. The TGI with CAKI-1 renal is greater than 100 µM; with SF-268 CNS, greater than 100 µM; in the experiment on IGROV1 ovarian it was greater than 100 µM; in the experiment with MALME-3M melanoma, 47 µM; with TK-10 renal, greater than 100 µM; in the experiment on MDA-N it was greater than 100 µM. Besides, the TGI in the experiment with M14 melanoma is greater than 100 µM.

In the case of `CCOC(=O)c1c(N2CCCC2)[nH]c(=O)c(C(c2ccc(Cl)c([N+](=O)[O-])c2)c2c(O)c(C(=O)OCC)c(N3CCCC3)[nH]c2=O)c1O`, the TGI with 786-0 renal was greater than 100 µM; in the experiment with BT-549 breast it was 51.8 µM; in the experiment on SK-MEL-5 melanoma, greater than 100 µM; in the experiment on SN12C renal, greater than 100 µM; in the experiment with UACC-62 melanoma, 86 µM; in the experiment with MDA-MB-435 it was greater than 100 µM. Further, the TGI is greater than 100 µM in the experiment on HS 578T breast; greater than 100 µM with RPMI-8226 leukemia; 66.6 µM in the experiment with UO-31 renal; greater than 100 µM in the experiment on KM12 colon; greater than 100 µM with ACHN renal; 60.6 µM with CAKI-1 renal. Moreover, the TGI is 55.2 µM in the experiment with SF-268 CNS; 84.6 µM in the experiment with MALME-3M melanoma; 59.2 µM in the experiment with TK-10 renal; 79.6 µM in the experiment on MDA-N; 42.7 µM in the experiment with M14 melanoma; greater than 100 µM with NCI-H460 lung.
